# Tests used:
# Assay in all cases: relative viability (nuclei count vs DMSO), 5 days (fraction); higher = more cells survive
# [1] = compound: CCN(CCO)CCCC(C)Nc1ccnc2cc(Cl)ccc12 [Hydroxychloroquine] + CC(C)C[C@H](NC(=O)[C@H](Cc1ccccc1)NC(=O)c1cnccn1)B(O)O [Bortezomib] (partner 0.002 µM)
# Method in brief: (§1)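 Medians of duplicate plates are given as relative viability. That measure is the nuclei count in treated wells divided by the count in vehicle wells. Counts were taken on 4× images of lung cancer cell lines in 1536-well plates, 5 days after pin-tool dosing the day after seeding with one drug alone or a fixed anchor-drug dose plus five library-drug doses (not always all listed) in √10 steps.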
# [2] = compound: CCN(CCO)CCCC(C)Nc1ccnc2cc(Cl)ccc12 [Hydroxychloroquine] + Cc1nc(Nc2ncc(C(=O)Nc3c(C)cccc3Cl)s2)cc(N2CCN(CCO)CC2)n1 [Dasatinib] (partner 0.075 µM)
# Method in brief: as §1
# [3] = compound: CCN(CCO)CCCC(C)Nc1ccnc2cc(Cl)ccc12 [Hydroxychloroquine] + CC1(C)CCC(c2ccc(Cl)cc2)=C(CN2CCN(c3ccc(C(=O)NS(=O)(=O)c4ccc(N[C@H](CCN5CCOCC5)CSc5ccccc5)c(S(=O)(=O)C(F)(F)F)c4)cc3)CC2)C1 [Navitoclax] (partner 0.5 µM)
# Method in brief: as §1
# [4] = compound: CCN(CCO)CCCC(C)Nc1ccnc2cc(Cl)ccc12 [Hydroxychloroquine] + CCNC(=O)c1noc(-c2cc(C(C)C)c(O)cc2O)c1-c1ccc(CN2CCOCC2)cc1 [Luminespib] (partner 0.01 µM)
# Method in brief: as §1
Cell Line,relative viability ([1]; first compound 0.5 µM),relative viability ([1]; first compound 1.581 µM),relative viability ([1]; first compound 5 µM),relative viability ([1]; first compound 15.81 µM),relative viability ([1]; first compound 50 µM),relative viability ([2]; first compound 0.5 µM),relative viability ([2]; first compound 1.581 µM),relative viability ([2]; first compound 5 µM),relative viability ([2]; first compound 15.81 µM),relative viability ([2]; first compound 50 µM),relative viability ([3]; first compound 0.5 µM),relative viability ([3]; first compound 1.581 µM),relative viability ([3]; first compound 5 µM),relative viability ([3]; first compound 15.81 µM),relative viability ([3]; first compound 50 µM),relative viability ([4]; first compound 0.5 µM),relative viability ([4]; first compound 1.581 µM),relative viability ([4]; first compound 5 µM),relative viability ([4]; first compound 15.81 µM),relative viability ([4]; first compound 50 µM)
201T,1.07,1.09,1.1,1.07,1.11,0.582,0.578,0.598,0.606,0.608,1.22,1.19,1.19,1.19,1.22,0.992,1.04,1.07,1.03,1.05
A-427,0.956,0.946,0.982,0.961,1.06,0.748,0.67,0.774,0.649,0.796,0.875,0.776,0.993,0.919,1.04,1.22,0.84,0.917,0.929,0.869
ABC-1,0.263,0.271,0.277,0.297,0.235,0.543,0.644,0.521,0.562,0.565,,,,,,0.495,0.47,0.668,0.564,0.785
BEN,0.693,0.802,0.977,0.824,0.949,0.273,0.332,0.316,0.267,0.331,0.051,0.0669,0.0688,0.0612,0.0766,0.382,0.331,0.309,0.311,0.33
CAL-12T,1.11,,0.922,0.795,0.926,0.573,0.399,0.352,0.351,0.404,1.06,1.22,1.21,1.23,1.23,0.286,0.319,0.363,0.511,0.373
COR-L23,0.89,1.17,1,1.28,1.21,0.472,0.543,0.533,0.421,0.534,1.03,0.926,1.24,1.31,1.12,0.683,0.662,0.818,0.948,0.705
COR-L 105,0.879,0.664,0.694,0.737,0.891,0.284,0.384,0.34,0.298,0.272,0.595,0.747,0.778,0.816,0.594,0.883,0.718,0.579,0.709,0.882
Calu-6,1,1.08,0.954,1,0.922,,,,,,0.852,0.883,0.836,0.731,0.823,,,,,
ChaGo-K-1,1.04,0.895,0.687,1.06,1.02,0.626,0.593,0.537,0.593,0.626,1.22,0.685,0.687,1.06,1,0.615,0.626,0.55,0.594,0.643
EBC-1,0.471,0.51,0.505,0.519,0.459,,,,,,0.371,0.387,0.418,0.412,0.374,,,,,
EKVX,1.26,0.925,1.04,0.916,1.09,0.512,0.502,0.495,0.535,0.337,1.1,0.919,1.07,1.04,0.943,0.894,0.887,0.836,0.836,0.865
EMC-BAC-2,0.981,1.03,1.06,1.12,1.17,0.309,0.381,0.347,0.329,0.345,1.17,1.23,1.17,1.17,1.36,1.2,1.03,1.14,1.18,1.19
EPLC-272H,0.762,0.579,0.736,0.861,1.08,0.342,0.441,0.333,0.335,0.347,1.19,1.07,1.28,1.24,1.29,0.188,0.388,0.264,0.289,0.33
H3255,0.835,0.743,0.722,0.68,0.702,0.367,0.386,0.3,0.281,0.369,0.56,0.422,0.546,0.522,0.635,0.966,0.874,0.912,0.819,0.742
HARA,1.1,1.19,1.02,1.13,1.06,0.287,0.262,0.253,0.29,0.299,1.14,1.15,1.14,1.2,1.12,1.15,1.09,0.789,0.542,1.01
HCC-15,0.951,0.918,1.08,1.09,1.2,0.621,0.578,0.581,0.609,0.627,0.72,0.669,0.702,0.758,0.714,0.433,0.39,0.25,0.252,0.503
HCC-44,0.875,0.865,0.883,0.914,0.955,,,,,,1.02,1,0.964,0.994,1.06,1.12,0.93,1.19,1.19,1.23
HCC-78,0.425,0.482,0.525,0.519,0.568,0.529,0.421,0.495,0.374,0.375,0.865,0.82,0.993,0.768,0.777,,,,,
HCC-366,1.1,1.15,1.04,1.06,1.16,0.739,0.731,0.624,0.768,0.719,1.09,1.04,0.963,1.07,1.16,,,,,
HCC-827,1.03,1.04,1.07,1.16,1.01,0.306,0.378,0.312,0.388,0.314,0.941,1.02,1.03,1.1,1.02,0.781,0.629,0.686,0.522,0.85

Cell Line,relative viability ([1]; first compound 0.5 µM),relative viability ([1]; first compound 1.581 µM),relative viability ([1]; first compound 5 µM),relative viability ([1]; first compound 15.81 µM),relative viability ([1]; first compound 50 µM),relative viability ([2]; first compound 0.5 µM),relative viability ([2]; first compound 1.581 µM),relative viability ([2]; first compound 5 µM),relative viability ([2]; first compound 15.81 µM),relative viability ([2]; first compound 50 µM),relative viability ([3]; first compound 0.5 µM),relative viability ([3]; first compound 1.581 µM),relative viability ([3]; first compound 5 µM),relative viability ([3]; first compound 15.81 µM),relative viability ([3]; first compound 50 µM),relative viability ([4]; first compound 0.5 µM),relative viability ([4]; first compound 1.581 µM),relative viability ([4]; first compound 5 µM),relative viability ([4]; first compound 15.81 µM),relative viability ([4]; first compound 50 µM)
HOP-62,0.652,0.9,0.751,0.945,1.02,0.57,0.601,0.717,0.636,0.58,0.962,1.13,1.1,1.03,1.13,1,0.987,1.01,1.09,1
IA-LM,0.695,0.83,0.909,0.758,1,,,,,,0.764,0.79,0.832,0.798,0.847,,,,,
LC-2-ad,0.974,1.03,1.04,1.01,1.12,0.56,0.684,0.603,0.639,0.595,0.337,0.332,0.478,0.416,0.405,1.19,1.02,0.906,1.01,0.969
LCLC-97TM1,0.453,0.764,0.483,0.523,0.529,0.866,0.896,0.903,0.841,0.808,0.432,0.619,0.656,0.517,0.397,0.876,0.833,0.787,0.768,0.867
LCLC-103H,1.13,0.837,1.04,1.15,1.06,0.367,0.405,0.523,0.547,0.543,,,,,,0.983,0.921,1.05,1.11,1.1
LK-2,,,,,,0.258,0.261,,0.294,0.357,0.777,0.763,0.809,0.914,0.632,0.192,0.171,,0.193,0.224
LOU-NH91,0.467,0.507,0.492,0.475,0.539,0.559,0.453,0.588,0.581,0.593,0.679,0.543,0.742,0.676,0.826,0.369,0.313,0.307,0.345,0.371
NCI-H358,,,,,,0.177,0.131,0.139,0.144,0.155,,,,,,0.286,0.293,0.282,0.283,0.388
NCI-H650,0.911,0.759,,0.901,0.748,0.501,0.405,0.446,0.458,0.479,,,,,,0.884,0.818,0.78,0.881,0.795
NCI-H661,0.795,0.719,0.652,0.761,0.825,0.841,0.872,0.764,0.722,0.894,,,,,,1.02,0.926,0.85,0.915,0.922
NCI-H1299,1.01,1.01,1.04,1.03,0.942,,,,,,1.05,1.01,1.02,1.05,1.04,,,,,
NCI-H1395,,,,,,0.424,0.402,0.401,0.391,0.405,1.21,1.05,1.17,1.18,1.01,0.655,0.785,0.722,0.886,0.483
NCI-H1563,0.891,0.784,0.923,0.779,0.759,0.509,0.501,0.449,0.475,0.421,,,,,,0.521,0.579,0.488,0.567,0.496
NCI-H1703,0.322,0.273,0.284,0.291,0.316,,,,,,1.08,0.934,1.02,1.02,1.29,,,,,
NCI-H1793,,,,,,0.464,0.36,0.423,0.413,0.476,0.331,0.32,0.404,0.389,0.547,0.357,0.197,0.16,0.15,0.194
NCI-H1944,,,,,,0.206,0.184,0.23,0.202,0.194,0.958,0.955,1.06,0.951,1.01,0.772,0.676,0.64,0.866,0.831
NCI-H2170,,,,,,0.645,0.601,0.558,0.62,0.673,0.54,0.695,0.631,0.644,0.549,0.543,0.646,0.765,0.714,1.01
NCI-H2342,,,,,,0.338,0.312,0.32,0.292,0.34,,,,,,0.606,0.668,0.706,0.69,0.809
SK-MES-1,,,,,,0.342,0.306,0.388,0.37,0.339,1.45,1.21,1.25,1.27,1.17,0.725,0.818,0.778,0.84,0.661
